Measured values from patent US11806393B2, “Flavivirus peptide sequences, epitopes, and methods and uses thereof” (priority 2017, dated 2023).

Assays:
Assay type in all cases: cell-based, mouse
CD8+ T cells [1] = assay: IFNγ ELISPOT, DENV2 S221-infected Ifnar-/- HLA-B*0702 transgenic mice; details: HLA-B*0702 mice, 7 days after 2×10^4 FFU DENV2 S221
Description: (§1) Two ZIKV strains, MR766 (Uganda, 1947) and FSS13025 (Cambodia, 2010), were obtained from the World Reference Center for Emerging Viruses and Arboviruses (WRCEVA). The mouse-adapted DENV2 strain S221 is a triple-plaque purified clone derived from DENV2 D2S1038. Both ZIKV and DENV2 were amplified in C6/36 mosquito cells, and viral titers were measured using baby hamster kidney (BHK)-21 cell-based focus forming assay (FFA). For epitope screening, 5-week old mice (female or male) were infected retro-orbitally (R.O.) with either 1×102 FFU of ZIKV FSS13025 or ZIKV MR766, or 2×10^4 FFU of DENV2 S221 in 200 μl 10% FBS/PBS. Seven days after infection, CD8^+ T cells were isolated from splenocytes and used for ELISPOT assay, while the splenocytes were directly used for ICS assay. Additionally, 5-week old mice were inoculated I.P. with 2×10^3 FFU of DENV2 S221 for 4 weeks.
(§2) CD8^+ T cells were isolated from splenocytes using magnetic bead positive selection (Miltenyi Biotec, Germany) 7 days after virus infection. 2×10^5 CD8^+ T cells were stimulated with 1×10^5 LPS-blasts loaded with 10 μg of individual peptide in 96-well flat-bottom plates (IMMOBILON™-P; Millipore, Bedford, Mass.) that were coated with anti-IFNγ mAb (clone AN18; Mabtech, Stockholm, Sweden) in triplicate. Concanavalin A (ConA) was used as positive control. After 20 hours of incubation, biotinylated anti-mouse IFNγ mAb (R4-6A2; Mabtech), followed by ABC peroxidase (Vector Laboratories, Burlingame, Calif., USA) and then 3-amino-9-ethylcarbazole (Sigma-Aldrich, St. Louis, Mo., USA) were added into the wells. […] A peptide inducing a magnitude of >500 SFCs/10^6 CD8^+ T cells was considered as an immunodominant peptide.
The following results are with respect to FIG. 14A and FIG. 14B, where Ifnar^−/− HLA-B*0702 transgenic mice were infected R.O. with 2×10^4 FFU of DENV2 strain S221 for 7 days. CD8^+ T cells isolated from splenocytes were stimulated with each of the 37 ZIKV epitopes identified via IFNγELISPOT to perform (FIG. 14A) IFNγELISPOT and (FIG. 14B) ICS assay. Data represent the average of two independent IFNγELISPOT experiments and two independent ICS experiments (n=7 mice) and are expressed as mean±SEM. Dotted line corresponds to the cutoff value. *, P<0.05.

CD8+ T cells [2] = assay: IFNγ ELISPOT, ZIKV-infected Ifnar-/- HLA-B*0702 transgenic mice; details: HLA-B*0702 mice; for SFC/10^6 CD8+ T cells, MR766: 7 days after 1×10^2 FFU ZIKV MR766
Description: as §1, §2
Two independent experiments performed in triplicate were averaged and the error bars represent the SEM. The data are expressed as the mean number of spot forming cells (SFC) per 10^6 CD8^+ T cells. The criteria for positivity were net SFC per 10^6 cells of >20, and a stimulation index of >2.0 when compared with the negative control. Dotted lines represent the cutoff value. * Indicates a positive response. […] ConA denotes Concanavalin A.

CD3+CD8+ T cells = assay: IFNγ ICS, ZIKV-infected Ifnar-/- HLA-B*0702 transgenic mice; details: HLA-B*0702 mice, 7 days after ZIKV MR766, ICS
Description: as §1
Spleens were harvested from virus-infected, mock-immunized, or peptide-immunized mice. 1×10^6 splenocytes were plated in each well of 96-well U-bottom plates and stimulated with individual peptide (10 μg crude peptide or 1 μg pure peptide per well) for 6 hours. Five hours before the end of incubation, Brefeldin A (GolgiPlug; BD Biosciences) and PE-conjugated anti CD107a mAb (clone 1D4B, eBioscience) were added to the cells. Splenocytes stimulated with PMA-ionomycin were used as the positive control, while cells without any stimulation were the negative control. […] Samples were run using an LSR™ II (BD Biosciences) and analyzed using FLOWJO™ software X 10.0.7 (Tree Star, Ashland, Oreg.).
Data represent the average of two independent experiments and are expressed as mean±SEM. *, P<0.05; **, P<0.01; Two-tailed Mann-Whitney test. P/I denotes PMA/ionomycin.

CD44+ CD4+ T cells [3] = assay: ICS, ZIKV SD001-infected Ifnar1-/- HLA-DRB1*0101 mice
Description: Ifnar1^−/− HLA-DRB1*0101 mice were infected retro-orbitally with 1×10^2 FFU of ZIKV strain SD001 for 7 days. Splenocytes were stimulated in vitro with the indicated ZIKV-derived HLA-DRB1*0101-binding peptides for 6 h, and the frequency of CD44^+ CD4^+ T cells producing IFNγ, TNF, or IFNγ plus TNF (A), IL-2 (B), and IL-17 (C) were detected using the ICS assay. Data represent the mean±s.e.m. of four independent experiments (n=3-5 mice/experiment; total 16 mice). *P<0.05, **P<0.01, ***P<0.001, ****P<0.0001 by two-tailed Mann-Whitney test. Negative and positive refer to cells incubated alone or with PMA/ionomycin, respectively. […]
(§3) For the 30-peptide epitope screen, 5-week-old female or male mice were infected retro-orbitally (r.o.) with either 1×10^2 focus-forming units (FFU) of ZIKV SD001 or 2×10^3 FFU of DENV2 S221 in 200 μl of 10% fetal bovine serum in phosphate-buffered saline (FBS/PBS). Seven days after infection, spleens were removed and single-cell splenocyte suspensions were prepared. A total of 1×10^6 splenocytes was plated in each well of a 96-well U-bottom plate and stimulated with individual peptides (20 μg crude peptide per well) for 6 h. One hour into the incubation, brefeldin A (GolgiPlug, BD Biosciences) was added to the cells. Positive and negative controls were splenocytes stimulated with phorbol-12-myristate-13-acetate (PMA, 0.1 μg/ml) and ionomycin (1 μg/ml) or incubated alone, respectively.
(§4) After incubation of splenocytes with peptides or PMA/ionomycin, cells were harvested, washed, and incubated with Fc Block (CD16/CD32 mAb 2.4G2, BD Biosciences), followed by staining with fixable Live/Dead blue viability stain (Life technologies) and the following antibodies: PerCP-Cy5.5-conjugated anti-CD3 mAb (clone 145-2C11, Tonbo), APC-eFluor780-conjugated anti-CD4 mAb (clone GK1.5, Invitrogen), Brilliant Violet (BV) 785-conjugated anti-CD44 mAb (clone IMT, Biolegend), PE-conjugated anti-CD11a (clone M17/4, Biolegend), BV605-conjugated anti-CD49d (clone 9C10(MFR4.B, Biolegend), PE-conjugated anti-CD25 mAb (clone PC61, Biolegend), PE-conjugated or biotin-conjugated anti-CD185 mAb (CXCR5, clone SPRC15; Invitrogen), BV 605-conjugated anti-[…] mAb (PD1, clone 29F.1A12; Biolegend), and/or BV 421-conjugated streptavidin (#405225, Biolegend). Cells were then fixed and permeabilized using Cytofix/Cytoperm solution (BD Biosciences), followed by staining with FITC-conjugated anti-IFNγ mAb (clone XMG1.2, Tonbo), Alexa Fluor 700- or APC-conjugated anti-TNF mAb (clone MP6-XT22, eBioscience), PE-, BV 421-, or BV 711-conjugated anti-IL-2 mAb (clone JES6-5H4, Biolegend), APC-conjugated anti-IL-4 mAb (clone 11B11, Biolegend), PE-conjugated anti-IL-5 mAb (clone TRFK5, eBioscience), BV510-conjugated anti-IL-17A mAb (clone 17B7, eBioscience), and/or Alexa Fluor 700-conjugated anti-FoxP3 mAb (clone FJK-16S, eBioscience). Data were collected using an LSR Fortessa flow cytometer (BD Biosciences) and analyzed using FlowJo software X 10.0.7 (Tree Star).

CD44+ CD4+ T cells [4] = assay: ICS, DENV2 S221-infected Ifnar1-/- HLA-DRB1*0101 mice
Description: Ifnar1^−/− HLA-DRB1*0101 mice were infected intraperitoneally with 2×10^3 FFU of DENV2 strain […] for 7 days. Splenocytes were stimulated in vitro with the indicated ZIKV-derived HLA-DRB1*0101-binding peptides for 6 h. The frequency of CD44^+ CD4^+ T cells producing IFNγ, TNF, or IFNγ plus TNF (A) or IL-2 (B) were detected using the ICS assay. Data represent the mean±s.e.m. of three independent experiments (n=3-4 mice/experiment; total 10 mice). *P<0.05, **P<0.01, ***P<0.001, ****P<0.0001 by two-tailed Mann-Whitney test. Negative and positive refer to cells incubated alone or with PMA/ionomycin, respectively.
as §3, §4

CD44+ CD4+ T cells [5] = assay: ICS, naive or DENV2-immune Ifnar1-/- HLA-DRB1*0101 mice challenged with ZIKV
Text: Ifnar1−/−HLA-DRB1*0101 mice were primed intraperitoneally with 2×103 FFU of DENV2 S221 for 4 weeks. Naïve mice and DENV2-immune mice were challenged retro-orbitally with 1×10^4 FFU of ZIKV strain SD001 for 3 or 7 days. Splenocytes were stimulated in vitro with the indicated ZIKV-specific and DENV2/ZIKV-cross-reactive epitopes. The frequency of CD44+ CD4+ T cells producing IFNγ, IFNγ plus TNF, or IL-2 were detected using the ICS assay. (E) The combined data for positive peptide responses in (FIGS. 27A-27D). Numbers in parentheses indicate the number of positive peptides. Data represent the mean±s.e.m. of three or four independent experiments, with a total of 9 mice/group for A and C, 14/group for B, and 15/group for D. *P<0.05, **P<0.01, ***P<0.001, ****P<0.0001 by two-tailed Mann-Whitney test. Negative and positive refer to cells incubated alone or with PMA/ionomycin, respectively.
Five-week-old female or male mice were inoculated intraperitoneally (i.p.) with 2×10^3 FFU of DENV2 S221. […] Positive and negative controls were included in all experiments.
as §4

[6] = 7 days after ZIKV SD001, 6 h stimulation
[7] = 7 days after DENV2 S221, 6 h stimulation

GPMPVTHASA [FSS/MR-NS3427-436]
SFC/10^6 CD8+ T cells, S221 (CD8+ T cells [1]): 136 SFC/10^6 CD8+ T cells
SFC/10^6 CD8+ T cells, FSS13025 (CD8+ T cells [2]; 7 days after 1×10^2 FFU ZIKV FSS13025): 140 SFC/10^6 CD8+ T cells
SFC/10^6 CD8+ T cells, MR766 (CD8+ T cells [2]): 204 SFC/10^6 CD8+ T cells

KPTVDIEL [FSS/MR-E38-45]
SFC/10^6 CD8+ T cells, S221 (CD8+ T cells [1]): 51 SFC/10^6 CD8+ T cells
SFC/10^6 CD8+ T cells, MR766 (CD8+ T cells [2]): 103 SFC/10^6 CD8+ T cells

LPEIVREAI [FSS/MR-NS3188-196]
SFC/10^6 CD8+ T cells, S221 (CD8+ T cells [1]): 63 SFC/10^6 CD8+ T cells
% IFNγ+ CD8+ T cells, MR766 (CD3+CD8+ T cells): (0.23%)
SFC/10^6 CD8+ T cells, MR766 (CD8+ T cells [2]): 179 SFC/10^6 CD8+ T cells

RAIWYMWLGARFLEP [NS5222-236]
% CD4+ CD44+ T cells (ZIKV) IL-2+ (CD44+ CD4+ T cells [3]; [6]): 0.21%
% CD4+ CD44+ T cells (ZIKV) INFγ+ (CD44+ CD4+ T cells [3]; [6]): 0.607%
% CD4+ CD44+ T cells (ZIKV) INFγ+ TNFα+ (CD44+ CD4+ T cells [3]; [6]): 0.333%
% CD4+ CD44+ T cells (ZIKV) TNFα+ (CD44+ CD4+ T cells [3]; [6]): 0.571%
cytokines produced by ZIKV-primed CD4+ T cells on peptide stimulation (CD44+ CD4+ T cells [3]; ZIKV SD001, day 7): stimulated IFNγ, TNF, and IL-2 production
identification as Th1 epitope (IFNγ, TNF, IL-2 ICS) (CD44+ CD4+ T cells [3]; ZIKV-primed CD4+ T cells): Th1 epitopes
% CD4+ CD44+ T cells (DENV) IL-2+ (CD44+ CD4+ T cells [4]; [7]): 0.643%
% CD4+ CD44+ T cells (DENV) INFγ+ (CD44+ CD4+ T cells [4]; [7]): 0.82%
% CD4+ CD44+ T cells (DENV) INFγ+ TNFα+ (CD44+ CD4+ T cells [4]; [7]): 1.451%
% CD4+ CD44+ T cells (DENV) TNFα+ (CD44+ CD4+ T cells [4]; [7]): 0.8%
cross-reactive response by DENV2-primed CD4+ T cells (CD44+ CD4+ T cells [4]; DENV2 S221, day 7): elicited cross-reactive responses
cytokines produced by DENV2-primed CD4+ T cells on peptide stimulation (CD44+ CD4+ T cells [4]; DENV2 S221, day 7): induced cells producing IFNγ, TNF, and IL-2
CD4+ T cell response to peptide (CD44+ CD4+ T cells [5]; DENV2-immune mice, day 7 after ZIKV challenge): increased responses
CD4+ T cell response (IFNγ, IL-2, IFNγ plus TNF) (CD44+ CD4+ T cells [5]; DENV2-primed mice, day 3 after ZIKV challenge): strong response
expansion of peptide-reactive CD4+ T cells (CD44+ CD4+ T cells [5]; naive mice, day 7 after ZIKV challenge): significant expansion
